Results published in US9902725B2, “Heterocyclic derivatives as RORgamma modulators” (GENFIT, priority 2014, dated 2018).

Each compound was assayed against T1, RORγt ligand-binding domain (RORγt-LBD) (Homo sapiens, UniProt P51449) (assay: Time-resolved FRET (TR-FRET) RORγt coactivator assay). Details: GST-RORγ-LBD, biotinylated RIP140 peptide, coactivator displacement.
T1 construct: 20 nM recombinantly expressed RORγ-LBD fused to GST
T1 sequence (P51449 269-508 limits assumed): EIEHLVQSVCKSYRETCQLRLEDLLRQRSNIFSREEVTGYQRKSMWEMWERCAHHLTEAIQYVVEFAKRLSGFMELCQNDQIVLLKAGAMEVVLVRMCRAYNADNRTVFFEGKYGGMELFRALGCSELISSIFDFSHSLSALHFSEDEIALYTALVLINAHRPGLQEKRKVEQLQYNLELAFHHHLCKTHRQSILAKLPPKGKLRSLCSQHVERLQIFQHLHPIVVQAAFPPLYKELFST
Type: biochemical

Compared with Cc1ccc(C(NC(=O)Cc2ccc3[nH]cc(CCC(=O)O)c3c2)c2ccccc2)c(N2CCOCC2)c1 (stereo not drawn) [compound 81, 3-{5-[({[4-methyl-2-(morpholin-4-yl)phenyl](phenyl)methyl}carbamoyl)methyl]-1H-indol-3-yl}propanoic acid], O=C(O)CCc1c[nH]c2ccc(CC(=O)NC(c3ccccc3)c3ccccc3N3CCOCC3)cc12 (stereo not drawn) [compound 196, 3-{5-[({[2-(morpholin-4-yl)phenyl](phenyl)methyl}carbamoyl)methyl]-1H-indol-3-yl}propanoic acid] is higher in IC50: less than 1 µM for the first, 1 to 10 µM for the second.

CC(C)(C)OC(=O)CCc1c[nH]c2ccc(CC(=O)NC(c3ccccc3)c3ccccc3N3CCCC(O)C3)cc12 (stereo not drawn) [Cpd. 123, tert-butyl 3-{5-[({[2-(3-hydroxypiperidin-1-yl)phenyl](phenyl)methyl}carbamoyl)methyl]-1H-indol-3-yl}propanoate] and O=C(O)CCc1c[nH]c2ccc(CC(=O)NC(c3ccccc3)c3ccccc3N3CCCC(O)C3)cc12 (stereo not drawn) [compound 124, 3-{5-[({[2-(3-hydroxypiperidin-1-yl)phenyl](phenyl)methyl}carbamoyl)methyl]-1H-indol-3-yl}propanoic acid] fall in the same range of IC50: 1 to 10 µM for the first, 1 to 10 µM for the second.

CC(C)CC(NC(=O)Nc1ccc2[nH]cc(CCC(=O)OC(C)(C)C)c2c1)c1ccccc1N1CCCCC1 (stereo not drawn) [compound 262, tert-butyl 3-{5-[({3-methyl-1-[2-(piperidin-1-yl)phenyl]butyl}carbamoyl)amino]-1H-indol-3-yl}propanoate] and CC(C)(C)OC(=O)CCc1c[nH]c2ccc(CC(=O)NC3(c4ccccc4N4CCCC4)CCCC3)cc12 [Cpd. 129, tert-butyl 3-{5-[({1-[2-(pyrrolidin-1-yl)phenyl]cyclopentyl}carbamoyl)methyl]-1H-indol-3-yl}propanoate] fall in the same range of IC50: 1 to 10 µM for the first, 1 to 10 µM for the second.

First: Cc1ccc(C(NC(=O)Cc2ccc3[nH]cc(CCC(=O)OC(C)(C)C)c3c2)c2ccccc2)c(N2CCN(Cc3ccccc3)CC2)c1 (stereo not drawn) [compound 263, tert-butyl 3-{5-[({[2-(4-benzylpiperazin-1-yl)-4-methylphenyl](phenyl)methyl}carbamoyl)methyl]-1H-indol-3-yl}propanoate]
Second: Cc1ccc(C(NC(=O)Cc2ccc3[nH]cc(CCC(=O)OC(C)(C)C)c3c2)c2ccccc2)c(N2CCN(C)CC2)c1 (stereo not drawn) [Cpd. 102, tert-butyl 3-{5-[({[4-methyl-2-(4-methylpiperazin-1-yl)phenyl](phenyl)methyl}carbamoyl)methyl]-1H-indol-3-yl}propanoate]
The IC50 of the first is lower: less than 1 µM for the first, 1 to 10 µM for the second. The first is the more potent here.

Compared with O=C(O)Cc1c[nH]c2ccc(CC(=O)NC(c3ccccc3)c3ccc(Cl)cc3N3CCCC3)cc12 (stereo not drawn) [compound 85, 2-{5-[({[4-chloro-2-(pyrrolidin-1-yl)phenyl](phenyl)methyl}carbamoyl)methyl]-1H-indol-3-yl}acetic acid], O=C(O)Cc1c[nH]c2ccc(CC(=O)NC(c3ccccc3)c3cc(Cl)ccc3N3CCCCC3)cc12 (stereo not drawn) [compound 166, 2-{5-[({[5-chloro-2-(piperidin-1-yl)phenyl](phenyl)methyl}carbamoyl)methyl]-1H-indol-3-yl}acetic acid] is higher in IC50: less than 1 µM for the first, 1 to 10 µM for the second.

COC(=O)Cc1c[nH]c2ccc(CC(=O)NC(c3ccc(C)s3)c3ccc(C)cc3C)cc12 (stereo not drawn) [Cpd. 222, methyl 2-[5-({[(2,4-dimethylphenyl)(5-methylthiophen-2-yl)methyl]carbamoyl}methyl)-1H-indol-3-yl]acetate] and Cc1ccc(C(NC(=O)Cc2ccc3[nH]cc(CCC(=O)OC(C)(C)C)c3c2)c2ccccc2)c(N)c1 (stereo not drawn) [Cpd. 183, tert-butyl 3-[5-({[(2-amino-4-methylphenyl)(phenyl)methyl]carbamoyl}methyl)-1H-indol-3-yl]propanoate] fall in the same range of IC50: 1 to 10 µM for the first, 1 to 10 µM for the second.

First: Cc1ccc(C(CC(C)C)NC(=O)Cc2ccc3[nH]cc(CCC(=O)OC(C)(C)C)c3c2)c(N(C)C)c1 (stereo not drawn) [Cpd. 133, tert-butyl 3-{5-[({1-[2-(dimethylamino)-4-methylphenyl]-3-methylbutyl}carbamoyl)methyl]-1H-indol-3-yl}propanoate]
Second: Cc1ccc(C(CC(C)C)NC(=O)Cc2ccc3[nH]cc(CCC(=O)O)c3c2)c(N(C)C)c1 (stereo not drawn) [compound 134, 3-{5-[({1-[2-(dimethylamino)-4-methylphenyl]-3-methylbutyl}carbamoyl)methyl]-1H-indol-3-yl}propanoic acid]
The IC50 of the first is higher: 1 to 10 µM for the first, less than 1 µM for the second.

Compared with COC(=O)Cc1c[nH]c2ccc(CC(=O)NC(c3ccccc3)c3ccccc3N3CCCCC3)cc12 (stereo not drawn) [Cpd. 40, methyl 2-{5-[({phenyl[2-(piperidin-1-yl)phenyl]methyl}carbamoyl)methyl]-1H-indol-3-yl}acetate], COC(=O)Cc1c[nH]c2ccc(NC(=O)NC(c3ccccc3)c3ccccc3N3CCCCC3)cc12 (stereo not drawn) [Cpd. 68, methyl 2-{5-[({phenyl[2-(piperidin-1-yl)phenyl]methyl}carbamoyl)amino]-1H-indol-3-yl}acetate] is higher in IC50: less than 1 µM for the first, 1 to 10 µM for the second. The first is the more potent here.

First: Nc1ccccc1C(NC(=O)Cc1ccc2[nH]cc(CCC(=O)O)c2c1)c1ccccc1 (stereo not drawn) [compound 52, 3-[5-({[(2-aminophenyl)(phenyl)methyl]carbamoyl}methyl)-1H-indol-3-yl]propanoic acid]
Second: Cn1ccc2cccc(C(NC(=O)Cc3ccc4[nH]cc(CCC(=O)O)c4c3)c3ccccc3)c21 (stereo not drawn) [compound 170, 3-[5-({[(1-methyl-1H-indol-7-yl)(phenyl)methyl]carbamoyl}methyl)-1H-indol-3-yl]propanoic acid]
The IC50 of the first is higher: 1 to 10 µM for the first, less than 1 µM for the second.

First: COC(=O)Cc1c[nH]c2ccc(CC(=O)NC(c3ccccc3)c3cccc(N4CCCCC4)c3)cc12 (stereo not drawn) [Cpd. 238, methyl 2-{5-[({phenyl[3-(piperidin-1-yl)phenyl]methyl}carbamoyl)methyl]-1H-indol-3-yl}acetate]
Second: O=C(O)CCC(=O)c1c[nH]c2ccc(CC(=O)NC(c3ccccc3)c3ccccc3N3CCCCC3)cc12 (stereo not drawn) [compound 213, 4-oxo-4-{5-[({phenyl[2-(piperidin-1-yl)phenyl]methyl}carbamoyl)methyl]-1H-indol-3-yl}butanoic acid]
The IC50 of the first is higher: 1 to 10 µM for the first, less than 1 µM for the second.

Compared with Cc1ccc(C(NC(=O)Cc2ccc3[nH]cc(CCC(=O)O)c3c2)C2CC2)c2ccccc12 (stereo not drawn) [compound 164, 3-[5-({[cyclopropyl(4-methylnaphthalen-1-yl)methyl]carbamoyl}methyl)-1H-indol-3-yl]propanoic acid], Cc1ccc(C(NC(=O)Cc2ccc3[nH]cc(CCC(=O)O)c3c2)c2ccccc2)c2[nH]ccc12 (stereo not drawn) [compound 229, 3-[5-({[(4-methyl-1H-indol-7-yl)(phenyl)methyl]carbamoyl}methyl)-1H-indol-3-yl]propanoic acid] is higher in IC50: less than 1 µM for the first, 1 to 10 µM for the second.

CCCCC(NC(=O)Cc1ccc2[nH]cc(CCC(=O)OC(C)(C)C)c2c1)c1ccccc1N(CC)CC (stereo not drawn) [Cpd. 218, tert-butyl 3-{5-[({1-[2-(diethylamino)phenyl]pentyl}carbamoyl)methyl]-1H-indol-3-yl}propanoate] and CN(C)c1ccccc1C(NC(=O)Cc1ccc2[nH]cc(CCC(=O)OC(C)(C)C)c2c1)c1ccccc1 (stereo not drawn) [Cpd. 53, tert-butyl 3-{5-[({[2-(dimethylamino)phenyl](phenyl)methyl}carbamoyl)methyl]-1H-indol-3-yl}propanoate] fall in the same range of IC50: 1 to 10 µM for the first, 1 to 10 µM for the second.

CCOc1ccccc1C(CC(C)C)NC(=O)Cc1ccc2[nH]cc(CCC(=O)O)c2c1 (stereo not drawn) [compound 243, 3-[5-({[1-(2-ethoxyphenyl)-3-methylbutyl]carbamoyl}methyl)-1H-indol-3-yl]propanoic acid] and CC(C)CC(NC(=O)Cc1ccc2[nH]cc(CCC(=O)O)c2c1)c1ccccc1N1CCOCC1 (stereo not drawn) [compound 58, 3-{5-[({3-methyl-1-[2-(morpholin-4-yl)phenyl]butyl}carbamoyl)methyl]-1H-indol-3-yl}propanoic acid] cannot be ordered by IC50: less than 1 µM for the first, less than 1 µM for the second.

Cc1cc(C(NC(=O)Cc2ccc3[nH]cc(CCC(=O)O)c3c2)c2ccccc2N2CCCCC2)oc1C (stereo not drawn) [compound 253, 3-[5-({[(4,5-dimethylfuran-2-yl)[2-(piperidin-1-yl)phenyl]methyl]carbamoyl}methyl)-1H-indol-3-yl]propanoic acid] and Cc1cnc(C(NC(=O)Cc2ccc3[nH]cc(CCC(=O)O)c3c2)c2ccccc2N2CCCCC2)s1 (stereo not drawn) [compound 154, 3-[5-({[(5-methyl-1,3-thiazol-2-yl)[2-(piperidin-1-yl)phenyl]methyl]carbamoyl}methyl)-1H-indol-3-yl]propanoic acid] cannot be ordered by IC50: less than 1 µM for the first, less than 1 µM for the second.

First: CC(C)(C)OC(=O)NC(=N)NC(=O)CCc1c[nH]c2ccc(CC(=O)NC(c3ccccc3)c3ccccc3N3CCCCC3)cc12 (stereo not drawn) [Cpd. 234, tert-butyl N-[(3-{5-[({phenyl[2-(piperidin-1-yl)phenyl]methyl}carbamoyl)methyl]-1H-indol-3-yl}propanamido)methanimidoyl]carbamate]
Second: O=C(O)CCCC(=O)c1c[nH]c2ccc(CC(=O)NC(c3ccccc3)c3ccccc3N3CCCCC3)cc12 (stereo not drawn) [compound 215, 5-oxo-5-{5-[({phenyl[2-(piperidin-1-yl)phenyl]methyl}carbamoyl)methyl]-1H-indol-3-yl}pentanoic acid]
The IC50 of the first is higher: 1 to 10 µM for the first, less than 1 µM for the second.

Cc1ccc(C(NC(=O)Cc2ccc3[nH]cc(CCC(=O)O)c3c2)c2ccccc2OC(C)C)o1 (stereo not drawn) [compound 255, 3-[5-({[(5-methylfuran-2-yl)[2-(propan-2-yloxy)phenyl]methyl]carbamoyl}methyl)-1H-indol-3-yl]propanoic acid] and Cc1ccc(C(C(=O)NCc2ccc3[nH]cc(CCC(=O)OC(C)(C)C)c3c2)c2ccccc2)c(N2CCCCC2)c1 (stereo not drawn) [Cpd. 208, tert-butyl 3-[5-({2-[4-methyl-2-(piperidin-1-yl)phenyl]-2-phenylacetamido}methyl)-1H-indol-3-yl]propanoate] cannot be ordered by IC50: less than 1 µM for the first, less than 1 µM for the second.

Compound O=C(O)CCc1c[nH]c2ccc(NC(=O)NC(c3ccccc3)c3ccccc3N3CCCCC3)cc12 (stereo not drawn) [compound 56, 3-{5-[({phenyl[2-(piperidin-1-yl)phenyl]methyl}carbamoyl)amino]-1H-indol-3-yl}propanoic acid] has an IC50 of less than 1 µM.
